From article PMC10987949, “Inhibition of HIV-1 release by ADAM metalloproteinase inhibitors” (Frontiers in Microbiology, 2024)

Assays:
CD62L shedding [1] = test: Soluble CD62L ELISA, anti-CD3/PHA stimulated PBMC or CD4 T cells; type: cell-based, human
Experimental: PBMC from de-identified healthy donors were obtained with informed consent from the Department of Transfusion Medicine, National Institutes of Health under Biological reagent Registry RD-14-IX-12 approved by NIH biological safety board. […] IL-2 was added at a final concentration of 20 U/mL. CD3 antibody okt3 was used at ~0.2 μg/mL final concentration. […] Supernatants were collected and assessed using either the CD62L or TNF-α Duo Set ELISA kit according to manufacturer’s instructions (R&D Systems, Inc.). The viability of cells treated with compounds was assessed by acridine orange / propidiom iodide (AO/PI Logosbio catalog F23001) staining using Luna-FL cell counter following the manufacture’s instruction.^2

recombinant ADAM17 = target: T1, recombinant ADAM17 (Homo sapiens, UniProt P78536); test: Kinetic cleavage of fluorogenic TNF-α peptide ES003 by recombinant ADAM17; type: biochemical; settings: 2 μM compound
T1 construct: purchased R&D systems, Inc
T1 sequence (P78536 215-824): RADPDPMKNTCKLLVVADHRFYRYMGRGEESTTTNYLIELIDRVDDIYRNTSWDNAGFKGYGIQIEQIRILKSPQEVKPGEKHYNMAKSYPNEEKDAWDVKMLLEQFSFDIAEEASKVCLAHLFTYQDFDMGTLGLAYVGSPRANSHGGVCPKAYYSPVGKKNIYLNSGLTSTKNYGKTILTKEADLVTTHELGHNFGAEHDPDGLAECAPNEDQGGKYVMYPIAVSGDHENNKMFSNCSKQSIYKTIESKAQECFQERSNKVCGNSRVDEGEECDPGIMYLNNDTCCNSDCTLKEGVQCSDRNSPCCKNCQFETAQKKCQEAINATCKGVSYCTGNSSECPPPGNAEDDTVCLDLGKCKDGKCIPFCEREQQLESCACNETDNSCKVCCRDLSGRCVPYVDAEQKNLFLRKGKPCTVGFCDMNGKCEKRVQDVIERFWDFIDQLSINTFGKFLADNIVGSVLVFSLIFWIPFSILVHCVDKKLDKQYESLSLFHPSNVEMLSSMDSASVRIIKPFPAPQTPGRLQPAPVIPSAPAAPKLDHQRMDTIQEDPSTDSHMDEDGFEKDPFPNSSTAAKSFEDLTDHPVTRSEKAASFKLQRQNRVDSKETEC
Text: (§1) A fluorescence based enzymatic assay was used to measure the cleavage of fluorogenic TNF-α and L-selectin (CD62L) peptides by either recombinant ADAMs or PBMC from healthy donors. The fluorogenic substrate, synthesized by Biomatik^3, was a Dabcyl (4-(4-dimethylaminophenylazo)benzoyl)- and Edans (5-[(2-aminoethyl)amino]naphthalene-1-sulfonic acid)- conjugated 12 amino acid peptide: Dabcyl-[…]-Edans that corresponds to the extracellular membrane proximal region of CD62L. […] The cleavage was measured in a kinetic assay every 3 min for 4 h in black 96-well plates using a Synergy_h1 fluorescent plate reader (BioTek) with 340 nm excitation and 490 nm emission wavelengths. […] PBMC were stimulated with anti-CD3 antibody for 2–4 days as described above.
(§2) 96-well plate with data recorded every 3 minutes for 4 hours using a Synergy_h1 fluorescent plate reader. Each enzymatic reaction contained 50 -200 ng
(§3) Figure 2B and 2C bar diagrams are generated using the
(§4) data points at 4 hour time point of the enzymatic cleavages.

recombinant ADAM10 [2] = target: T2, recombinant ADAM10 (Homo sapiens, UniProt O14672); test: Kinetic cleavage of fluorogenic TNF-α peptide ES003 by recombinant ADAM10; type: biochemical; settings: 2 μM compound
T2 construct: purchased R&D systems, Inc
T2 sequence (O14672 214-748): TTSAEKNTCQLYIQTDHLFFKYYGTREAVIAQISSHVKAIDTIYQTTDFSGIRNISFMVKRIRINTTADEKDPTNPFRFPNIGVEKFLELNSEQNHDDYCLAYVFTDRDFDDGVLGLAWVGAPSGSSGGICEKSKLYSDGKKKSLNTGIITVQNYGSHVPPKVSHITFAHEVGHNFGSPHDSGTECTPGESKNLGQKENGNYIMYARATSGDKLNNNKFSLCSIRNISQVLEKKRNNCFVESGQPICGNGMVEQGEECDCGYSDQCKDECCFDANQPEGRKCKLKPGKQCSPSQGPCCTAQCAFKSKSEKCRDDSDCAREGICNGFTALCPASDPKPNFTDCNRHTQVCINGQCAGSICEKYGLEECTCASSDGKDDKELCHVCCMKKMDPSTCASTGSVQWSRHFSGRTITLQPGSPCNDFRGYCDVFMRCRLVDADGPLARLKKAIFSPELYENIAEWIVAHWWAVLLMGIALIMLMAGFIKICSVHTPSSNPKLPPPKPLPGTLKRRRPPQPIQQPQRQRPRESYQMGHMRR
Text: as §1, §2, §3, §4

recombinant ADAM10 [3] = target: T2, recombinant ADAM10; test: Cleavage of fluorogenic CD62L peptide by recombinant ADAM10; type: biochemical; settings: 2 μM compound
Text: A fluorescence based enzymatic assay was used to measure the cleavage of fluorogenic TNF-α and L-selectin (CD62L) peptides by either recombinant ADAMs or PBMC from healthy donors. The fluorogenic substrate, synthesized by Biomatik^3, was a Dabcyl (4-(4-dimethylaminophenylazo)benzoyl)- and Edans (5-[(2-aminoethyl)amino]naphthalene-1-sulfonic acid)- conjugated 12 amino acid peptide: Dabcyl-[…]-Edans that corresponds to the extracellular membrane proximal region of CD62L. The fluorescence of the Edans group is quenched by the Dabcyl group in the intact substrate and the cleavage of the CD62L substrate peptide results in a fluorescence emission at 490 nm. The cleavage of fluorogenic TNF-α peptide (ES003, R &D systems, Inc) was detected at emission of 405 nm. The cleavage was measured in a kinetic assay every 3 min for 4 h in black 96-well plates using a Synergy_h1 fluorescent plate reader (BioTek) with 340 nm excitation and 490 nm emission wavelengths. For cleavage using recombinant ADAMs, each enzymatic reaction contained 50–200 ng of recombinant ADAM17 or 10 (R&D systems, Inc) mixed with 5–10 μM fluorogenic TNFα peptide ES003 (R&D systems, Inc) or CD62L peptide with or without indicated inhibitors in 100 μL assay buffer of 25 mM Tris at pH 9.0, 2.5 μM ZnCl2, and 0.005% Brij-35 (w/v). For cell-based cleavage of the fluorescent CD62L-peptide substrate, 300,000 PBMC at 2×10^6/ml density were mixed with 10 μM fluorescent CD62L-peptide and various inhibitors in a black 96-well plate in 150 μL culture media (RPMI 1640, 10% FBS, 1% penicillin streptomycin). PBMC were stimulated with anti-CD3 antibody for 2–4 days as described above.
Supplemental Figure 3. Inhibition of ADAM10 enzymatic activity by 14mb. A) chemical structure of 3-Cl-phenylpyrrolidine tartrate diamide analogs 14m and 15. B)Inhibition of recombinant ADAM10 cleavage of a fluorogenic CD62L peptide substrate in the presence of titrating concentrations of 14mb. The concentration-dependent enzymatic activities are fitted with non-linear regression of normalized inhibition response model. C). Inhibition of ADAM10 enzymatic cleavage of fluorogenic CD62L peptide by various […]

HIV-1BAL = HIV-1BAL infection of CD8-depleted PBMC, FACS (intracellular p24, CD4, CD62L); type: cell-based
Text: The use of healthy human peripheral blood mononuclear cells (PBMC) is approved by the Department of Transfusion Medicine at the Clinical Center of National Institutes of Health. The use of PBMC from HIV-1 infected individuals for the study was approved under protocol #02-I-0202 by the Institutional Review Board (IRB) of National Institutes of Health with written informed consent from all donors. Peripheral blood mononuclear cells (PBMCs) from anonymous healthy donors were isolated by Ficoll-Paque gradient, and cultured in RPMI 1640 supplemented with 10% FBS, 1%Penicillin/streptomycin, 1% HEPES buffer and 20 U/mL IL-2 (culture media); and stimulated with 0.2 μg/mL anti-CD3 antibody (okt3) for 2 days. CD8^+ T cells were depleted prior to infection using the Stemcell CD8 positive selection kit according to manufacturer’s instructions. CD8-depleted PBMCs were plated at 2×10^6 cells/ml in 48-well plates in 1 mL culture media with various inhibitors for 60 min prior to the addition of ~80 TCID50 HIV-1BAL or HIV-1LAI. Inhibitors were replenished during media change every 3 days. The infections were proceeded with or without inhibitors for 6 days or otherwise specified number of days and then analyzed by FACS staining using fluorescent labeled CD4-BV510, CD62L-APC and CD3-PEC7 antibodies (BD Biosciences). Cells were then washed and permeabilized with CytoFix/CytoPerm (BD Biosciences) solution before intracellular staining for HIV p24 antigen using FITC conjugated anti-p24 antibody clone KC57 (Beckman Coulter, catalog 6604665). All assays were performed with cell viabilities >80%. Replication competent HIV-1 viruses were obtained from the NIH AIDS Reagent Program^4, and expanded by infecting activated CD8-depleted PBMCs, and TCID50 was determined by p24 ELISA.

[4] = target: T3, recombinant HIV-1 protease (Human immunodeficiency virus type 1 group M subtype B, UniProt P04585); test: HIV-1 protease fluorogenic substrate cleavage; type: biochemical; settings: 100nM saquinavir or nelfinavir; MMP inhibitors up to 10uM
T3 construct: recombinant HIV-1 protease; purchased Sigma-Aldrich SRP2151
Experimental: HIV-1 protease enzymatic activity was assayed in black 96-well plates at room temperature using a Synergy_h1 fluorescent plate reader with 340 nm excitation and 490 nm emission wavelengths (BioTek). Each enzymatic reaction consisted of a mixture of 100 ng of recombinant HIV-1 protease (Sigma-Aldrich catalog SRP2151), 5 μM concentration of a fluorogenic substrate Arg-Glu(EDANS)-[…]DABCYL)-Arg (Sigma-aldrich catalog H6660), and various concentrations of inhibitor compounds in 100 μL of assay buffer (0.15 M sodium chloride, 1.0 mM EDTA, 1.0 mM DTT, 0.1 M sodium acetate, pH 5.0). The fluorescence of the cleavage reaction was continuously read at every 30 s for a total of 40 min.

CD62L shedding [5] = test: Soluble CD62L ELISA, unstimulated PBMC; type: cell-based, human; settings: 10 μM compound, non-stimulated cells, ELISA
Experimental: PBMC from de-identified healthy donors were obtained with informed consent from the Department of Transfusion Medicine, National Institutes of Health under Biological reagent Registry RD-14-IX-12 approved by NIH biological safety board. CD8-depleted PBMCs, either stimulated or non-stimulated with 10 μg/mL phytohaemagglutinin (PHA) or anti-CD3 antibody (with or without conjugated beads), were plated at 2×10^6 cells/ml in 48 well plates in RPMI 1640 + 10%FBS (R10) to a final volume of 1 mL in each well. IL-2 was added at a final concentration of 20 U/mL. CD3 antibody okt3 was used at ~0.2 μg/mL final concentration. […] Supernatants were collected and assessed using either the CD62L or TNF-α Duo Set ELISA kit according to manufacturer's instructions (R&D Systems, Inc.). The viability of cells treated with compounds was assessed by acridine orange / propidiom iodide (AO/PI Logosbio catalog F23001) staining using Luna-FL cell counter following the manufacture's instruction.^2 […] Supplemental Figure 1. CD62L shedding from unstimulated PBMC. A) Soluble CD62L in the supernatant of unstimulated PBMC was measured By ELISA (R&D systems, Inc) after 24 hour treatment in the presence of 10 μM of […]), aminopeptidase (AP) protease inhibitors, respectively, or their untreated controls. Statistics were calculated using unpaired parametric student t-test between individual treatment and DMSO control. […] B) Viability of PBMC treated with 10-500 μM of MMP inhibitors for 24hours. […] Untreated DMSO AEBSF 3,4-Dichloroisocouman Granzyme B Inhibitor II Granzyme B Inhibitor IV Aprotinin […] 3 4 CD62L shedding from unstimulated PBMC Soluble CD62L (ng/ml) Inhibitor Class […] GI254023X 10 GI254023X 100 […] GI254023X 1000 GW280264X 10 GW280264X 100 […] GW280264X 1000 Marimastat 10 Marimastat 100 Marimastat 250 […]

PBMC = PBMC viability (AO/PI staining); type: cell-based, human; settings: for PBMC viability at 24hr post treatment: 10-500 μM of MMP inhibitors for 24hours
Experimental: PBMC from de-identified healthy donors were obtained with informed consent from the Department of Transfusion Medicine, National Institutes of Health under Biological reagent Registry RD-14-IX-12 approved by NIH biological safety board. CD8-depleted PBMCs, either stimulated or non-stimulated with 10 μg/mL phytohaemagglutinin (PHA) or anti-CD3 antibody (with or without conjugated beads), were plated at 2×10^6 cells/ml in 48 well plates in RPMI 1640 + 10%FBS (R10) to a final volume of 1 mL in each well. IL-2 was added at a final concentration of 20 U/mL. CD3 antibody okt3 was used at ~0.2 μg/mL final concentration. Compounds were prepared in appropriate solvents according to the manufacturer’s instructions, diluted to working concentrations using RPMI 1640 + 10%FBS (R10), and added to the cell cultures for 6–24 h for CD62L shedding, and 48 h for TNF-α release. Supernatants were collected and assessed using either the CD62L or TNF-α Duo Set ELISA kit according to manufacturer’s instructions (R&D Systems, Inc.). The viability of cells treated with compounds was assessed by acridine orange / propidiom iodide (AO/PI Logosbio catalog F23001) staining using Luna-FL cell counter following the manufacture’s instruction.^2

[6] = 10 μM compound, stimulated cells, ELISA

O=P([O-])([O-])C(Cl)(Cl)P(=O)(O)O.[Na+].[Na+] [DMDP, Dichloromethylenediphosphonic acid disodium salt]
Shedding inhibition Stimulated (CD62L shedding [1]; [6]): − (0% inhibition) | inhibition of ADAM17 cleavage of ES003 (recombinant ADAM17): inhibited neither ADAM10 nor 17 enzymatic activities | inhibition of ADAM10 cleavage of ES003 (recombinant ADAM10 [2]): inhibited neither ADAM10 nor 17 enzymatic activities | inhibition of ADAM10 cleavage of CD62L substrate peptide (recombinant ADAM10 [3]): not | accumulation of infected CD4−/CD62L− T cells (loss of CD62L) (HIV-1BAL; HIV-1BAL infected cells): failed to prevent the loss of CD62L | effect on HIV-1BAL infection (intracellular p24) (HIV-1BAL; day 7 post infection, compounds at 100 μM, GI254023X at 250 μM): failed to inhibit HIV-1BAL infections | effect on HIV protease cleavage of fluorogenic substrate [4]: none of the MMP inhibitors, including BB-94, prinomastat, GM6001 and DMDP, inhibited the activity of HIV protease

CNC(=O)[C@@H](NC(=O)[C@H](CC(C)C)[C@H](O)C(=O)NO)C(C)(C)C [Marimastat]
inhibition at 10 µM (CD62L shedding [1]; Homo sapiens, 10 μM compound, stimulated cells, ELISA): > 50% | inhibition at 10 µM (CD62L shedding [5]; Homo sapiens, PBMC, read-out: Shedding inhibition Non-stim.): > 50% | PBMC viability at day 6 post infection with HIV-1 BAL (PBMC; 50uM): significant loss in cell viability | PBMC viability at 24hr post treatment (PBMC): No significant decrease in the viability

Cc1c(O)cccc1C(=O)N[C@@H](CSc1ccccc1)[C@H](O)CN1C[C@H]2CCCC[C@H]2C[C@H]1C(=O)NC(C)(C)C [nelfinavir]
effect on CD62L shedding from stimulated PBMC (CD62L shedding [1]; titration of HAART compounds, concentration range tested): did not inhibit CD62L shedding | p24 staining in HIV-1BAL infection of PBMC (HIV-1BAL; day 6, 0.5μM compounds): no significant staining | effect on HIV protease cleavage of fluorogenic substrate [4]: suppressed the substrate cleavage by HIV protease | PBMC viability at day 3 post treatment (PBMC; 10uM): significant reduced cell viability

CC(C)(C)NC(=O)[C@@H]1C[C@@H]2CCCC[C@@H]2CN1C[C@@H](O)[C@H](Cc1ccccc1)NC(=O)[C@H](CC(N)=O)NC(=O)c1ccc2ccccc2n1 [saquinavir]
effect on HIV protease cleavage of fluorogenic substrate [4]: suppressed the substrate cleavage by HIV protease

GW280264X
Shedding inhibition Stimulated (CD62L shedding [1]; [6]): +/− (<20) | Shedding inhibition Non-stim. (CD62L shedding [5]): +/− (<20) | PBMC viability at 24hr post treatment (PBMC): No significant decrease in the viability
